Measurements taken from ChEMBL document CHEMBL1150849, “Antiprotozoal activity of the constituents of Conyza filaginoides” (J Nat Prod, 2001).
Values after ≈ are worked out from the molar mass of the structure shown.

How the values were obtained:
Entamoeba histolytica = test: Antiprotozoal activity against Entamoeba histolytica HM-1:IMSS trophozoites after 48 hrs by MTT/PMS assay; type: functional, organism-based
Giardia intestinalis = test: Antiprotozoal activity against Giardia lamblia IMSS:0989:1 after 48 hrs by MTT/PMS assay; type: functional, organism-based; conditions: Giardia duodenalis, IMSS:0989:1, 48 h

| SMILES | IC50 (Entamoeba histolytica) [µg/mL] | IC50 (Giardia intestinalis) [µg/mL] |
| --- | --- | --- |
| C=C1CC[C@H]2O[C@@]2(C)CC[C@@H]2[C@@H]1CC2(C)C | 71.3 (≈ 324 µM) | 53.8 (≈ 244 µM) |
| C[C@@H]1O[C@@H](OC[C@H]2O[C@@H](Oc3c(-c4ccc(O)c(O)c4)oc4cc(O)cc(O)c4c3=O)[C@H](O)[C@@H](O)[C@@H]2O)[C@H](O)[C@H](O)[C@H]1O [RUTIN] | 120 (≈ 196 µM) | 179 (≈ 293 µM) |
| CC1(C)CC[C@]2(CO)CC[C@]3(C)C(=CC[C@@H]4[C@@]5(C)CC[C@H](O)C(C)(C)[C@@H]5CC[C@]43C)[C@@H]2C1 [ERYTHRODIOL] | 12.7 (≈ 28.7 µM) | 29.9 (≈ 67.5 µM) |
| C[C@@H]1O[C@@H](OC[C@H]2O[C@@H](Oc3c(-c4ccc(O)cc4)oc4cc(O)cc(O)c4c3=O)[C@H](O)[C@@H](O)[C@@H]2O)[C@H](O)[C@H](O)[C@H]1O [NICOTIFLOROSIDE] | 30.9 (≈ 52 µM) | 22.5 (≈ 37.8 µM) |
| COc1cc(-c2oc3cc(O)cc(O)c3c(=O)c2O[C@@H]2O[C@H](COC(=O)/C=C/c3ccc(O)c(O)c3)[C@H](O)[C@H](O)[C@H]2O)ccc1O | 47.7 (≈ 74.5 µM) | 15.3 (≈ 23.9 µM) |
| O=C(/C=C/c1ccc(O)c(O)c1)OC[C@H]1O[C@@H](Oc2c(-c3ccc(O)cc3)oc3cc(O)cc(O)c3c2=O)[C@H](O)[C@@H](O)[C@H]1O | 30 (≈ 49.1 µM) | 47 (≈ 77 µM) |
| O=C(/C=C/c1ccc(O)c(O)c1)OC[C@H]1O[C@@H](Oc2c(-c3ccc(O)c(O)c3)oc3cc(O)cc(O)c3c2=O)[C@H](O)[C@@H](O)[C@@H]1O | 14 (≈ 22.3 µM) | 105 (≈ 167 µM) |
| O=c1c(O[C@@H]2O[C@H](CO)[C@@H](O)[C@H](O)[C@H]2O)c(-c2ccc(O)c(O)c2)oc2cc(O)cc(O)c12 [ISOQUERCETIN] | 14.7 (≈ 31.7 µM) | 87.3 (≈ 188 µM) |
| O=c1c(O[C@@H]2O[C@H](CO)[C@@H](O)[C@H](O)[C@H]2O)c(-c2ccc(O)cc2)oc2cc(O)cc(O)c12 [ASTRAGALIN] | 61.2 (≈ 136 µM) | 47.5 (≈ 106 µM) |
| CC[C@H]1CN2CCc3cc(OC)c(OC)cc3[C@@H]2C[C@@H]1C[C@H]1NCCc2cc(OC)c(OC)cc21 [EMETINE] | 1.05 (≈ 2.18 µM) | 0.41 (≈ 0.853 µM) |
| COc1cc(-c2oc3cc(O)cc(O)c3c(=O)c2O[C@@H]2O[C@H](CO[C@@H]3O[C@@H](C)[C@H](O)[C@@H](O)[C@H]3O)[C@@H](O)[C@H](O)[C@H]2O)ccc1O [NARCISSIN] | 17.2 (≈ 27.5 µM) | 94.7 (≈ 152 µM) |
